Measurements taken from the NIST ThermoML archive (doi:10.1021/je201349k).
Numbers after ± are expanded uncertainties. One block for each compound: values may come before it.

Conditions: Liquid

- vapor or sublimation pressure (337.85 K): 101 ± 0.86 kPa
SMILES: CO [methanol]

- vapor or sublimation pressure (425.15 K): 101 ± 0.86 kPa
SMILES: CN(C)C=O [dimethylformamide]

- vapor or sublimation pressure (317.55 K): 101 ± 0.86 kPa
SMILES: CC(C)(C)N [2-methyl-2-propanamine]
